Data on 97 compounds can be found in ChEMBL document CHEMBL5604062, “ASAP - ZIKV NS2B-NS3 protease fluorescence dose response” (2024).

As usually defined, the IC50 is the concentration that gives 50% inhibition. A lower IC50 goes with greater potency in that assay.

Several values for one entry are separate records, joined by “and”; a condition that tells them apart may be missing. Equal values may be shown once. Where only a bound is given, the exact number is not on record here.

In this assay the target is Nonstructural protein 3 (Zika virus, UniProt A0A024AXB9). The assay is described as follows: Functional biochemical assay to identify treatments for viral infectious disease that targets Zika NS2B-NS3 protease. Utilizing a direct enzyme activity measurement method, reading the fluorescence intensity is used to characterize the relative potency of inhibitors as IC50. On the set-up: species or system PRVABC59.
Sequence of Nonstructural protein 3 (A0A024AXB9 whole entry): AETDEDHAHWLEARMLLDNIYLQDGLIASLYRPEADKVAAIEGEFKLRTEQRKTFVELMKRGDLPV
Turning to `O=C1c2c(O)ccc([N+](=O)[O-])c2C(=O)c2c([N+](=O)[O-])ccc(O)c21`, the IC50 amounted to 57.1 µM. On to `CNC(=O)C(=O)/C=C/c1ccccc1`, for which the IC50 is over 198 µM. To `O=C(/C=C/c1ccccc1)C(=O)N1CCOCC1` belongs over 198 µM. On to `O=C(Cn1sc2ccccc2c1=O)Nc1cccc(OCc2cn(CC(=O)Nc3ccccc3Oc3ccccc3)nn2)c1`, for which the IC50 was found to be 2.06 µM. Turning to `O=C(C(=O)N1CCOCC1)c1c[nH]c2ccccc12`, the IC50 was over 99.5 µM. To `COc1ccc(S(=O)(=O)n2nc(OC(=O)c3cccc(-c4ccccc4Cl)c3)cc2N)cc1` belongs 0.183 µM. To `CCCCCC(=O)N[C@H](C(=O)NCc1cccc(CN)c1)c1ccc(OCc2ccccc2)cc1` belongs 73.3 µM and 80.1 µM; to `CCCCCC(=O)N[C@H](C(=O)NCc1ccc(NC(=N)N)cc1)c1ccc(OCc2ccccc2)cc1`, over 99.5 µM. Take `NC(=O)c1cccc(NC(=O)[C@@H](NC(=O)c2ccc(Oc3ccc(C(F)(F)F)cc3)cc2)c2ccc(OCc3ccccc3)cc2)c1`: the IC50 is over 99.5 µM.

Turning to `O=C(Nc1ccc2c(c1)B(O)OC2)c1cccc(OCc2c(Cl)cccc2Cl)c1`, the IC50 was over 99.5 µM.

Take `COc1ccc(S(=O)(=O)Nc2ccc(C(=O)Nc3nc4ccccc4s3)cc2)cc1`: the IC50 was over 99.5 µM. To `CN(C)c1ccc(/C=C/C(=O)C(=O)N2CCOCC2)cc1` belongs 83.2 µM. To `CCCCCC(=O)N[C@H](C(=O)N1CCC(CN)CC1)c1ccc(OCc2ccccc2)cc1` belongs over 99.5 µM; to `CC1(C)OB(c2ccc(Cl)cc2CNC2CCCCC2)OC1(C)C`, over 99.5 µM; to `O=C(/C=C/c1ccccc1)C(=O)N1CCN(CCc2ccccc2)CC1`, 44.9 µM. To `O=C(/C=C/c1ccc(N2CCNCC2)cc1)C(=O)N1CCOCC1` belongs over 99.5 µM; to `COc1cc(COc2cccnc2F)nc(N2CCNCC2)n1`, over 99.5 µM; to `c1ccc2c(CN3CC[C@H](c4c[nH]c5ccccc45)C3)c[nH]c2c1`, over 99.5 µM.

As to `CNC(=O)c1cc(C#N)ccc1NS(=O)(=O)c1ccc(Oc2ccccc2Cl)cc1`, the IC50 is over 99.5 µM. In turn, `NC(=O)c1cn(C[C@H]2CCCN2c2ccnc3ccccc23)nn1` came in with an IC50 of over 99.5 µM. To `COc1cc(Cc2ccnc(N3CCNCC3)c2)nc(N2CCNCC2)n1` belongs over 99.5 µM; to `COc1cnccc1NC(=O)c1cccn(CC(C)C)c1=O`, over 99.5 µM; to `Nc1ccc(/C=C/C(=O)C(=O)N2CCN(CCc3ccccc3)CC2)cc1`, over 99.5 µM.

`NCc1ccc(C[C@H](NC(=O)c2ccccc2)C(=O)N2CCCCC2)cc1` registered an IC50 of over 99.5 µM. In turn, `CCCC[C@H](NC(C)=O)C(=O)N[C@H](C(=O)NCc1ccc(CN)cc1)c1ccccc1` came in with an IC50 of over 99.5 µM. In turn, `CCn1ccnc(N2CC[C@H](c3cccnc3)C2)c1=O` registered an IC50 of over 99.5 µM. Turning to `CCn1ccnc(N2CC[C@H](c3ccn[nH]3)C2)c1=O`, the IC50 was over 99.5 µM. To `CC(C)Nc1nc2ccc(C(=O)Nc3ccc4cn[nH]c4n3)cc2[nH]1` belongs over 99.5 µM. `N=C(N)NCCc1ccccc1B(O)O` returned an IC50 of over 100 µM. `c1cc(CN2CCC(c3c[nH]c4ncccc34)CC2)c2[nH]ccc2c1` returned an IC50 of over 99.5 µM. The figure for `O=C(O)c1cccc(NC(=O)c2cccc(OCc3c(Cl)cccc3Cl)c2)c1` is over 99.5 µM; for `N=C(N)NCCc1ccc(OC(=O)Nc2ccccc2)cc1` it is over 100 µM; for `Cc1cc(NS(=O)(=O)c2ccc(Oc3ccccc3Cl)cc2)c(C(=O)NCC(F)(F)F)cc1F` it is 72.3 µM.

Compound `CCCC[C@H](NC(=O)OC(C)(C)C)C(=O)N[C@H](C(=O)NCc1ccc(C(N)=O)cc1)c1ccc(OCc2ccccc2)cc1` returned a 50% inhibitory concentration (IC50) of over 99.5 µM. To `CCn1ccnc(N2CC[C@@H](C(=O)NC)C2)c1=O` belongs over 99.5 µM; to `NCc1cccc(NC(=O)[C@@H](NC(=O)OCc2ccccc2)c2ccc(OCc3ccccc3)cc2)c1`, 11.6 µM.

Compound `O=C(c1cc(Cl)ccc1NS(=O)(=O)c1ccc(Oc2ccccc2Cl)cc1)N1CCCC1` gave an IC50 of over 99.5 µM. The figure for `COC(=O)c1cncc(OCc2cc(OC)nc(N3CCNCC3)n2)c1` is over 99.5 µM. To `CCn1ccnc(N2CCC(c3c[nH]c4ccccc34)CC2)c1=O` belongs over 99.5 µM.

`CNC(=O)C(=O)/C=C/c1ccccc1C`: the IC50 is over 198 µM. `COC(=O)c1csc2cc(C(=O)N3CCCc4cc(CCN)ccc43)[nH]c12` came in with an IC50 of over 99.5 µM. As to `COc1cc(Cc2c(-c3ccc(F)cc3)noc2C)nc(N2CCNCC2)n1`, the IC50 stood at 70.4 µM. The figure for `CC(C)Nc1nc2ccc(C(=O)Nc3nnnn3-c3ccccn3)cc2[nH]1` is over 99.5 µM; for `CCn1ccnc(N2CC[C@@H](CC(N)=O)C2)c1=O` it is over 99.5 µM; for `N=C(N)Nc1ccc(NC(=O)Oc2ccccc2)cc1` it is over 100 µM. The compound `CC(C)(C)OC(=O)N[C@H](C(=O)Nc1cccc(CN)c1)c1ccc(OCc2ccccc2)cc1` had an IC50 of over 99.5 µM.

In the case of `N=C(N)NCCc1ccc(NC(=O)C(=O)/C=C/c2ccc(N)cc2)cc1`, 36.7 µM corresponded to half-maximal inhibition (IC50). To `COc1cc(COc2cncc3ccccc23)nc(N2CCNCC2)n1` belongs over 99.5 µM; to `CCn1ccnc(N2CC[C@H](c3cccc(C#N)c3)C2)c1=O`, over 99.5 µM. To `CN(C)Cc1ccc(C(=O)Nc2cc(Cl)cc(C(=O)NC(C)(C)CO)c2)[nH]1` belongs over 99.5 µM. To `CCn1ccnc(N2CC[C@H](c3c[nH]c4ccccc34)C2)c1=O` belongs over 99.5 µM. As for `N=C(N)Nc1ccc(OC(=O)Nc2ccccc2)cc1`, the IC50 was over 100 µM. To `O=C(NCC1CC1)c1cc(Cl)ccc1NS(=O)(=O)c1ccc(Oc2ccccc2Cl)cc1` belongs 76.3 µM; to `O=C(/C=C/c1ccccc1CN1CCCCC1)C(=O)N1CCOCC1`, over 198 µM; to `NCc1ccc(/C=C/C(=O)C(=O)N2CCOCC2)cc1`, 79.4 µM. The figure for `CCn1ccnc(N2CC[C@H](c3ccc(OC)nc3)C2)c1=O` is over 99.5 µM.

`COc1cc(Cc2ccc3[nH]ncc3c2)nc(N2CCNCC2)n1` displayed an IC50 of over 99.5 µM. The figure for `CCn1ccnc(N2CC[C@H](C3CCOCC3)C2)c1=O` is over 99.5 µM; for `N=C(N)NCCc1ccc(NC(=O)Oc2ccccc2)cc1` it is 87.4 µM and 21.5 µM.

As for `CNC(=O)c1cc(Cl)ccc1NS(=O)(=O)c1ccc(Oc2ccccc2Cl)cc1`, the IC50 was over 99.5 µM. The figure for `COc1ccc2nc(C(F)(F)F)nc(N3CCN(c4ccc(N)nc4)CC3)c2c1` is over 99.5 µM; for `CCn1ccnc(N2CC[C@H](c3ccncc3)C2)c1=O` it is over 99.5 µM. To `c1ccc2c(CN3CCC[C@H](c4c[nH]c5ccccc45)C3)c[nH]c2c1` belongs over 99.5 µM; to `CCCC[C@H](NC(C)=O)C(=O)N[C@H](C(=O)Nc1ccc(C(N)=O)cc1)c1ccc(OCc2ccccc2)cc1`, over 99.5 µM; to `CC(C)(CO)NC(=O)c1cc(Cl)cc(NC(=O)c2cc(Cl)ccc2O)c1`, over 99.5 µM. `C[C@@H](Cc1c[nH]c2ccccc12)N1CC[C@H](c2c[nH]c3ccccc23)C1` returned an IC50 of over 99.5 µM.

As for `CS(=O)(=O)c1ccc(N2CCNCC2)cc1NC(=O)c1cccc2ncccc12`, the IC50 is over 99.5 µM. The compound `CCn1ccnc(N2CC[C@H](C#N)C2)c1=O` displayed an IC50 of over 99.5 µM. In turn, `CCn1ccnc(N2CC[C@@H](CO)C2)c1=O` had an IC50 of over 99.5 µM. Regarding `N[C@H]1CCN(c2cccc(CNC(=O)c3ccc4[nH]c(=O)[nH]c4c3F)n2)C1`, the IC50 was over 99.5 µM.

In turn, `c1ccc2c(CN3CCC(c4c[nH]c5cccnc45)CC3)c[nH]c2c1` displayed an IC50 of 25.2 µM.

The compound `CCn1ccnc(N2CC[C@@H](Cc3ccncc3)C2)c1=O` showed an IC50 of over 99.5 µM. To `N=C(N)NCCc1ccc(NC(=O)Cc2ccccc2)cc1` belongs over 198 µM.

For `CCn1ccnc(N2CC[C@@H](CC#N)C2)c1=O`, the IC50 is over 99.5 µM. As to `CCCC[C@H](NC(C)=O)C(=O)N[C@H](C(=O)NCc1ccc(CN)cc1)c1ccc(OCc2ccccc2)cc1`, 60.4 µM corresponded to half-maximal inhibition (IC50). To `O=C(Cn1ccc2cccnc21)N1CC[C@H](c2c[nH]c3ccccc23)C1` belongs over 99.5 µM; to `CC(C)(C)OC(=O)N[C@H](C(=O)Nc1ccc(CN)cc1)c1ccc(OCc2ccccc2)cc1`, over 99.5 µM; to `CN(C)Cc1cccc(C(=O)Nc2cc(Cl)cc(C(=O)NC(C)(C)CO)c2)c1`, over 99.5 µM. To `N=C(N)NCCc1cccc(B(O)O)c1` belongs over 100 µM; to `N=C(N)NCc1ccc(NC(=O)Oc2ccccc2)cc1`, over 100 µM. The figure for `N=C(N)NCc1ccc(OC(=O)Nc2ccccc2)cc1` is over 100 µM.

Take `N=C(N)NCCc1ccc(NC(=O)C(=O)c2ccccc2)cc1`: the IC50 is over 198 µM. With `Cc1nc([C@H]2CCCNC2)[nH]c1C(=O)Nc1ccccn1`, the IC50 is over 99.5 µM.

Turning to `c1ccc2c([C@H]3CCN(C[C@H]4CCOC4)C3)c[nH]c2c1`, the IC50 was over 99.5 µM.

Compound `c1ccc2c([C@H]3CCN(CC[C@H]4CCCO4)C3)c[nH]c2c1` showed an IC50 of over 99.5 µM.

`CCn1ccnc(N2CC[C@H](C(C)(C)C)C2)c1=O`: the IC50 is over 99.5 µM. Take `CC1(C)OB(c2cccc(F)c2CNC2CCCC2)OC1(C)C`: the IC50 was over 99.5 µM. The figure for `c1ccc2c([C@H]3CCN(CCC4CCOCC4)C3)c[nH]c2c1` is over 99.5 µM. Consider `CC(C)Cn1cccc(C(=O)Nc2ccnc3ccccc23)c1=O`, for which the IC50 is over 99.5 µM. `NCc1ccc(NC(=O)[C@@H](NC(=O)OCc2ccccc2)c2ccc(OCc3ccccc3)cc2)cc1` yielded an IC50 of over 99.5 µM. Take `c1ccc2c(CN3CCC(c4c[nH]c5ncccc45)CC3)c[nH]c2c1`: the IC50 amounted to 33.9 µM.

Compound `NS(=O)(=O)c1nc(C(=O)N2CCc3c(CO)cccc32)n2ccccc12` yielded an IC50 of over 99.5 µM. To `N=C(N)NCCc1ccc(NC(=O)c2ccccc2)cc1` belongs over 198 µM; to `CCn1ccnc(N2CC[C@H](c3ccc(C#N)cc3)C2)c1=O`, over 99.5 µM; to `O=C(Nc1cccc(N2CCNCC2)c1)c1cccc2ncccc12`, over 99.5 µM. `O=C(Nc1ccc(F)nc1)Oc1ccccc1`: the IC50 was over 100 µM. To `COc1ccc(S(=O)(=O)n2nc(OC(=O)c3ccccc3)cc2N)cc1` belongs 1.16 µM.
